The values that follow come from patent US8273724B2, “Melanoma antigens and their use in diagnostic and therapeutic methods” (The United States of America, as represented by the …, priority 1994, dated 2012).

Molecules are shown by their SMILES. Where a SMILES comes first, the peptide text is derived from it.

The subject of this assay is T2 cell lines preincubated with peptide. The experiment in a line: Recognition of modified peptides by natural epitope (M9-2, G9-154, G9-209, G9-280) reactive T-cells, 51Cr release on peptide-pulsed T2 cells (Example 5). The format is cell-based, human. The method, then:
Assessment of antigen recognition by CTL. ^51Cr release cytotoxic assays were performed to detect the recognition of peptide and melanoma cells by CTL. To analyze peptide recognition, T2 cell lines were preincubated for 2 h at 37° C. with 1 ug/ml peptide, washed and used as target cells in a ^51Cr release cytotoxic assay. The melanoma lines 624mel was established in our laboratory (See Example 1).
In order to make more immunogenic peptides for induction of anti-melanoma T-cells than natural melanoma epitopes, a variety of peptides in which at least 1 amino acid was changed based on consensus motifs in peptides binding to a specific MHC Class I allele Falk, et al. (1991) Nature 351:290; Kubo et al. (1994) J. Immunol 152:3913; Parker, K. et al. (1992) Journal of Immunology 149:3580; Ruppert, J. et al. (1993) Cell 74:929-937) (Tables 14, 15, 16, and 17). […] By changing amino acid at the 1st, 2nd, 3rd or 9th positions which are important for HLA-A2 binding to the peptide, but less important for recognition by T-cell receptors, artificial peptides which can bind to HLA-A2.1 with higher affinity and still be recognized by natural epitope specific T-cells may be generated.
Turning to `CC(C)C[C@H](NC(=O)[C@H](C)N)C(=O)N[C@@H](Cc1c[nH]c2ccccc12)C(=O)NCC(=O)N[C@@H](CCC(N)=O)C(=O)N[C@@H](Cc1ccc(O)cc1)C(=O)N[C@@H](Cc1c[nH]c2ccccc12)C(=O)N[C@@H](CCC(N)=O)C(=O)N[C@H](C(=O)O)C(C)C` [G9-154-1A2L] (H-ALWGQYWQV-OH; N-terminus and C-terminus assumed), the “Recognition by G9-154 reactive T-cell” value is recorded as “+ (+, recognized)”.

On to `CC(C)[C@H](NC(=O)[C@H](CO)NC(=O)[C@H](Cc1ccccc1)NC(=O)[C@@H]1CCCN1C(=O)[C@@H](NC(=O)[C@H](CCC(N)=O)NC(=O)[C@H](CC(=O)O)NC(=O)[C@@H](NC(=O)[C@@H](N)Cc1c[nH]c2ccccc12)[C@@H](C)O)C(C)C)C(=O)O` [G9-209-1W] (H-WTDQVPFSV-OH; N-terminus and C-terminus assumed), for which the “Recognition by G9-209 reactive T-cell” value was “+ (+, recognized)”.

Consider `CC[C@H](C)[C@H](N)C(=O)N[C@@H](CC(C)C)C(=O)N[C@@H](C)C(=O)N[C@@H](CCC(N)=O)C(=O)N[C@H](C(=O)N1CCC[C@H]1C(=O)N[C@@H](Cc1ccccc1)C(=O)N[C@@H](CO)C(=O)N[C@H](C(=O)O)C(C)C)C(C)C` [G9-209-2L3A], for which the “Recognition by G9-209 reactive T-cell” value was “−”.

Consider `CC[C@H](C)[C@H](N)C(=O)N[C@@H](CC(C)C)C(=O)N[C@@H](Cc1ccccc1)C(=O)N[C@@H](CCC(N)=O)C(=O)N[C@H](C(=O)N1CCC[C@H]1C(=O)N[C@@H](Cc1ccccc1)C(=O)N[C@@H](CO)C(=O)N[C@H](C(=O)O)C(C)C)C(C)C` [G9-209-2L3F], for which the “Recognition by G9-209 reactive T-cell” value is reported as “−”.

On to `CC[C@H](C)[C@H](N)C(=O)N[C@@H](CC(C)C)C(=O)N[C@@H](CCSC)C(=O)N[C@@H](CCC(N)=O)C(=O)N[C@H](C(=O)N1CCC[C@H]1C(=O)N[C@@H](Cc1ccccc1)C(=O)N[C@@H](CO)C(=O)N[C@H](C(=O)O)C(C)C)C(C)C` [G9-209-2L3M], for which the “Recognition by G9-209 reactive T-cell” value is “−”.

In the case of `CC[C@H](C)[C@H](N)C(=O)N[C@@H](CC(C)C)C(=O)N[C@@H](CO)C(=O)N[C@@H](CCC(N)=O)C(=O)N[C@H](C(=O)N1CCC[C@H]1C(=O)N[C@@H](Cc1ccccc1)C(=O)N[C@@H](CO)C(=O)N[C@H](C(=O)O)C(C)C)C(C)C` [G9-209-2L3S] (H-ILSQVPFSV-OH; N-terminus and C-terminus assumed), the “Recognition by G9-209 reactive T-cell” value is reported as “−”.

Take `CC[C@H](C)[C@H](N)C(=O)N[C@@H](CC(C)C)C(=O)N[C@@H](Cc1c[nH]c2ccccc12)C(=O)N[C@@H](CCC(N)=O)C(=O)N[C@H](C(=O)N1CCC[C@H]1C(=O)N[C@@H](Cc1ccccc1)C(=O)N[C@@H](CO)C(=O)N[C@H](C(=O)O)C(C)C)C(C)C` [G9-209-2L3W] (H-ILWQVPFSV-OH; N-terminus and C-terminus assumed): the “Recognition by G9-209 reactive T-cell” value was “−”.

`CC[C@H](C)[C@H](N)C(=O)N[C@@H](CC(C)C)C(=O)N[C@@H](Cc1ccc(O)cc1)C(=O)N[C@@H](CCC(N)=O)C(=O)N[C@H](C(=O)N1CCC[C@H]1C(=O)N[C@@H](Cc1ccccc1)C(=O)N[C@@H](CO)C(=O)N[C@H](C(=O)O)C(C)C)C(C)C` [G9-209-2L3Y] (H-ILYQVPFSV-OH; N-terminus and C-terminus assumed): the “Recognition by G9-209 reactive T-cell” value is reported as “−”.

Regarding `CC[C@H](C)[C@H](N)C(=O)N[C@H](C(=O)N[C@@H](C)C(=O)N[C@@H](CCC(N)=O)C(=O)N[C@H](C(=O)N1CCC[C@H]1C(=O)N[C@@H](Cc1ccccc1)C(=O)N[C@@H](CO)C(=O)N[C@H](C(=O)O)C(C)C)C(C)C)[C@@H](C)O` [G9-209-3A], the “Recognition by G9-209 reactive T-cell” value is on record as “−”.

Regarding `CC[C@H](C)[C@H](N)C(=O)N[C@H](C(=O)N[C@@H](Cc1ccccc1)C(=O)N[C@@H](CCC(N)=O)C(=O)N[C@H](C(=O)N1CCC[C@H]1C(=O)N[C@@H](Cc1ccccc1)C(=O)N[C@@H](CO)C(=O)N[C@H](C(=O)O)C(C)C)C(C)C)[C@@H](C)O` [G9-209-3F] (H-ITFQVPFSV-OH; N-terminus and C-terminus assumed), the “Recognition by G9-209 reactive T-cell” value was “−”.

As to `CC[C@H](C)[C@H](N)C(=O)N[C@H](C(=O)N[C@@H](CCSC)C(=O)N[C@@H](CCC(N)=O)C(=O)N[C@H](C(=O)N1CCC[C@H]1C(=O)N[C@@H](Cc1ccccc1)C(=O)N[C@@H](CO)C(=O)N[C@H](C(=O)O)C(C)C)C(C)C)[C@@H](C)O` [G9-209-3M] (H-ITMQVPFSV-OH; N-terminus and C-terminus assumed), the “Recognition by G9-209 reactive T-cell” value is “−”.

As to `CC[C@H](C)[C@H](N)C(=O)N[C@H](C(=O)N[C@@H](CO)C(=O)N[C@@H](CCC(N)=O)C(=O)N[C@H](C(=O)N1CCC[C@H]1C(=O)N[C@@H](Cc1ccccc1)C(=O)N[C@@H](CO)C(=O)N[C@H](C(=O)O)C(C)C)C(C)C)[C@@H](C)O` [G9-209-3S], the “Recognition by G9-209 reactive T-cell” value was “−”.

Regarding `CC[C@H](C)[C@H](N)C(=O)N[C@H](C(=O)N[C@@H](Cc1c[nH]c2ccccc12)C(=O)N[C@@H](CCC(N)=O)C(=O)N[C@H](C(=O)N1CCC[C@H]1C(=O)N[C@@H](Cc1ccccc1)C(=O)N[C@@H](CO)C(=O)N[C@H](C(=O)O)C(C)C)C(C)C)[C@@H](C)O` [G9-209-3W], the “Recognition by G9-209 reactive T-cell” value was “−”.

Turning to `CC[C@H](C)[C@H](N)C(=O)N[C@H](C(=O)N[C@@H](Cc1ccc(O)cc1)C(=O)N[C@@H](CCC(N)=O)C(=O)N[C@H](C(=O)N1CCC[C@H]1C(=O)N[C@@H](Cc1ccccc1)C(=O)N[C@@H](CO)C(=O)N[C@H](C(=O)O)C(C)C)C(C)C)[C@@H](C)O` [G9-209-3Y] (H-ITYQVPFSV-OH; N-terminus and C-terminus assumed), the “Recognition by G9-209 reactive T-cell” value is “−”.

For the compound `CC[C@H](C)[C@H](NC(=O)CNC(=O)[C@H](CC(C)C)NC(=O)[C@@H](N)Cc1ccccc1)C(=O)NCC(=O)N[C@H](C(=O)N[C@@H](CC(C)C)C(=O)N[C@H](C(=O)N[C@H](C(=O)O)C(C)C)[C@@H](C)O)[C@@H](C)CC` [M9-2-1F2L], the “Recognition by M9-2 reactive T-cell” value is given as “−”.

Take `CC[C@H](C)[C@H](NC(=O)CNC(=O)[C@@H](NC(=O)[C@@H](N)CCCCN)[C@@H](C)CC)C(=O)NCC(=O)N[C@H](C(=O)N[C@@H](CC(C)C)C(=O)N[C@H](C(=O)N[C@H](C(=O)O)C(C)C)[C@@H](C)O)[C@@H](C)CC` [M9-2-1K2I]: the “Recognition by M9-2 reactive T-cell” value is listed as “−”.

For `CC[C@H](C)[C@H](NC(=O)CNC(=O)[C@H](CC(C)C)NC(=O)[C@@H](N)CCCCN)C(=O)NCC(=O)N[C@H](C(=O)N[C@@H](CC(C)C)C(=O)N[C@H](C(=O)N[C@H](C(=O)O)C(C)C)[C@@H](C)O)[C@@H](C)CC` [M9-2-1K2L], the “Recognition by M9-2 reactive T-cell” value was “−”.

For the compound `CC[C@H](C)[C@H](NC(=O)CNC(=O)[C@H](CCSC)NC(=O)[C@@H](N)CCCCN)C(=O)NCC(=O)N[C@H](C(=O)N[C@@H](CC(C)C)C(=O)N[C@H](C(=O)N[C@H](C(=O)O)C(C)C)[C@@H](C)O)[C@@H](C)CC` [M9-2-1K2M], the “Recognition by M9-2 reactive T-cell” value was “−”.

As to `CC[C@H](C)[C@H](NC(=O)CNC(=O)[C@H](CC(C)C)NC(=O)[C@@H](N)Cc1c[nH]c2ccccc12)C(=O)NCC(=O)N[C@H](C(=O)N[C@@H](CC(C)C)C(=O)N[C@H](C(=O)N[C@H](C(=O)O)C(C)C)[C@@H](C)O)[C@@H](C)CC` [M9-2-1W2L], the “Recognition by M9-2 reactive T-cell” value was “−”.

In the case of `CC[C@H](C)[C@H](NC(=O)CNC(=O)[C@H](C)NC(=O)[C@@H](N)Cc1c[nH]c2ccccc12)C(=O)NCC(=O)N[C@H](C(=O)N[C@@H](CC(C)C)C(=O)N[C@H](C(=O)N[C@H](C(=O)O)C(C)C)[C@@H](C)O)[C@@H](C)CC` [M9-2-1W], the “Recognition by M9-2 reactive T-cell” value is given as “+ (+, recognized)”.

As to `CC[C@H](C)[C@H](NC(=O)CNC(=O)[C@H](CC(C)C)NC(=O)[C@@H](N)Cc1ccc(O)cc1)C(=O)NCC(=O)N[C@H](C(=O)N[C@@H](CC(C)C)C(=O)N[C@H](C(=O)N[C@H](C(=O)O)C(C)C)[C@@H](C)O)[C@@H](C)CC` [M9-2-1Y2L], the “Recognition by M9-2 reactive T-cell” value is listed as “−”.

`CC[C@H](C)[C@H](NC(=O)CNC(=O)[C@H](C)NC(=O)[C@@H](N)Cc1ccc(O)cc1)C(=O)NCC(=O)N[C@H](C(=O)N[C@@H](CC(C)C)C(=O)N[C@H](C(=O)N[C@H](C(=O)O)C(C)C)[C@@H](C)O)[C@@H](C)CC` [M9-2-1Y]: the “Recognition by M9-2 reactive T-cell” value is recorded as “−”.

As to `CC[C@H](C)[C@H](NC(=O)CNC(=O)[C@@H](NC(=O)[C@H](C)N)[C@@H](C)CC)C(=O)NCC(=O)N[C@H](C(=O)N[C@@H](CC(C)C)C(=O)N[C@H](C(=O)N[C@H](C(=O)O)C(C)C)[C@@H](C)O)[C@@H](C)CC` [M9-2-2I], the “Recognition by M9-2 reactive T-cell” value is recorded as “−”.

In the case of `CC[C@H](C)[C@H](NC(=O)CNC(=O)[C@@H](NC(=O)[C@H](Cc1ccccc1)NC(=O)[C@H](CC(C)C)NC(=O)[C@H](C)N)[C@@H](C)CC)C(=O)N[C@@H](CC(C)C)C(=O)N[C@H](C(=O)N[C@H](C(=O)O)C(C)C)[C@@H](C)O` [M9-2-2L3F], the “Recognition by M9-2 reactive T-cell” value was “−”.

With `CC[C@H](C)[C@H](NC(=O)CNC(=O)[C@@H](NC(=O)[C@H](Cc1c[nH]c2ccccc12)NC(=O)[C@H](CC(C)C)NC(=O)[C@H](C)N)[C@@H](C)CC)C(=O)N[C@@H](CC(C)C)C(=O)N[C@H](C(=O)N[C@H](C(=O)O)C(C)C)[C@@H](C)O` [M9-2-2L3W], the “Recognition by M9-2 reactive T-cell” value is recorded as “−”.

On to `CC[C@H](C)[C@H](NC(=O)CNC(=O)[C@@H](NC(=O)[C@H](Cc1ccc(O)cc1)NC(=O)[C@H](CC(C)C)NC(=O)[C@H](C)N)[C@@H](C)CC)C(=O)N[C@@H](CC(C)C)C(=O)N[C@H](C(=O)N[C@H](C(=O)O)C(C)C)[C@@H](C)O` [M9-2-2L3Y], for which the “Recognition by M9-2 reactive T-cell” value was “−”.
